Patent publication EP4722206A1, “BENZO(HETERO)CYCLOALKYL COMPOUNDS FOR ANDROGEN RECEPTOR-DEPENDENT DISEASES” (Haihe Biopharma Co., Ltd., priority 2023, dated 2024)

Columns and labels:
[1] = molecular target: T1, Androgen receptor (AR) (Homo sapiens, UniProt P10275); assay: Androgen receptor (AR) reporter gene assay (ARE Luc); type: cell-based; settings: AR+ARE/Luc HEK293T cells, with 11-KDHT, 24h incubation, Bright-Lite luminescence
T1 construct: expressed in transfected cells; host or cells: AR+ARE/Luc HEK293T cells
T1 sequence (P10275 1-920): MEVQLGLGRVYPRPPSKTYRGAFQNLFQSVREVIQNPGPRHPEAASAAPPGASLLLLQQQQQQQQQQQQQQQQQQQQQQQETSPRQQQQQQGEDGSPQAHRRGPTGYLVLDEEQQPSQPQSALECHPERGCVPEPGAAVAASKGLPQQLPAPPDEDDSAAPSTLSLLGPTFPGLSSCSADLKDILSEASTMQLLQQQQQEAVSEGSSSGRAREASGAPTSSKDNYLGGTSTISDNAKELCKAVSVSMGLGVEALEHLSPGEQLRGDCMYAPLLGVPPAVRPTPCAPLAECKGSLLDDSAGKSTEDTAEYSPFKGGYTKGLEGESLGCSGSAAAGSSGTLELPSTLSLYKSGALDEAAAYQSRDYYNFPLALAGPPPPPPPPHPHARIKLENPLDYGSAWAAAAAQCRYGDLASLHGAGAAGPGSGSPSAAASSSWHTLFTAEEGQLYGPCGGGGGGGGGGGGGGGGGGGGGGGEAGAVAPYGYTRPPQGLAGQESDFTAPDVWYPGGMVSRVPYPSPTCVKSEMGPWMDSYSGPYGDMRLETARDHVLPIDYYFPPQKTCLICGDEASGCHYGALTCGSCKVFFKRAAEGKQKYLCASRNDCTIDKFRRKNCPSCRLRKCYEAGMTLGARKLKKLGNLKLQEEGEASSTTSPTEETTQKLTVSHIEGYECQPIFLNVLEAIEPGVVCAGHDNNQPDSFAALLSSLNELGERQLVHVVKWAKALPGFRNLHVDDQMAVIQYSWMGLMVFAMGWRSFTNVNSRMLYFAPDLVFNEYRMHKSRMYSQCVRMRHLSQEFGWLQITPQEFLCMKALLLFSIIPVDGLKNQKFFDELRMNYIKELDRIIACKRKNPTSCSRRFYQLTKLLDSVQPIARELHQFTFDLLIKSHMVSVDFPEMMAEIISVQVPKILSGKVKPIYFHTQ
Procedure: Experimental Methods: 1. The described compounds were dissolved in 100% DMSO at a final concentration of 10 mM. 100 nL each of 400X compound to be tested and 400X 11-KDHT (40 nM) represtively were added to a 384-well assay plate with Echo, followed by 20 µL of complete medium, and centrifuged at 1000 rpm for 1 min, and oscillated for 20-30 min at room temperature. 2. 20 µL of AR+ARE/Luc HEK293T cells (10,000 cells/well) were inoculated into the assay plate containing the compounds and 11-KDHT, and centrifuged at 1000 rpm for 1 min. The assay plate was incubated in a 37 °C CO2 incubator for 24h. 3. 40 µL of Bright-Lite assay reagent was transferred to each well of the assay plate, centrifuged at 1000 rpm for 1 min, and shaken for 2 min at room temperature protected from light. 4. Luminescence values (RLU) were measured using Envision. […] Table 1. AR inhibition of Representative Compounds

[2] = molecular target: T2, AR-V7 (Homo sapiens, UniProt P10275); assay: AR degradation experiment (AR-V7-HiBiT, Nano-Glo HiBiT Lytic Detection); type: cell-based; settings: 22RV1 cells stably expressing AR-V7-HiBiT, 24 hr at 37 °C; concentration required for degradation 50% of the target protein
T2 construct: fusing HiBiT tag (PromegaTM) into the C-terminus of the AR-V7 genome of 22RV1 cells; host or cells: 22RV1 cells, CRISPR/Cas9 knock-in of HiBiT at the AR-V7 C-terminus
T2 sequence (P10275 1-644 isoform P10275-3): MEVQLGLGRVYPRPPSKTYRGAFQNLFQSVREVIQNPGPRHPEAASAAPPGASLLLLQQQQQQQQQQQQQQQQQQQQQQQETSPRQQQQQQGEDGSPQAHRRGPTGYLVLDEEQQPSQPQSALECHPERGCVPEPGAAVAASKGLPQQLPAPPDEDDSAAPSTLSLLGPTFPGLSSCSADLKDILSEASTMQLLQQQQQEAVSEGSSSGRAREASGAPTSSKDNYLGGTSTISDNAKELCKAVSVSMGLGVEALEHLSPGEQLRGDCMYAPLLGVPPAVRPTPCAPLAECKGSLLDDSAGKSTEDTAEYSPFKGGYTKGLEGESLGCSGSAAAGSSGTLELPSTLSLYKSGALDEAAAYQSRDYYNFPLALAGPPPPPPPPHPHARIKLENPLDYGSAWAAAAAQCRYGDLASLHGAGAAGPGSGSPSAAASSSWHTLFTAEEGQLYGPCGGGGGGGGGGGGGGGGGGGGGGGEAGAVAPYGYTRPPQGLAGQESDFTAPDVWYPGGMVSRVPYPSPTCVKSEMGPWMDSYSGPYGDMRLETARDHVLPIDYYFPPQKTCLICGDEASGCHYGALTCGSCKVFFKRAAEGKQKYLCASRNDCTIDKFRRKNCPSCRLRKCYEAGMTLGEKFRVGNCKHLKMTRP
Procedure: In this experiment, cells stably expressing AR-V7-HiBiT was constructed by fusing HiBiT tag (PromegaTM) into the C-terminus of the AR-V7 genome of 22RV1 cells (ATCC) using CRISPR/Cas9 technology. The concentration of test compounds started from 1000 nM, and diluted with DMSO by 3-fold gradient for 11 points. […]

Row | SMILES | IC50 [1] [nM] | DC50 [2] [nM]
1 | N#Cc1cc2c(c(Cl)c1OCCCl)CCC[C@@H]2c1cnc(NCCOCCOc2ccc3c(c2)C(=O)N(C2CCC(=O)NC2=O)C3=O)nc1 (stereo partly shown) [HANT-315-P2] | 3870 | –
2 | N#Cc1cc2c(c(Cl)c1OCCCl)CCCC2Nc1ccc(OCOCNc2ccc3c(c2)C(=O)N(C2CCC(=O)NC2=O)C3=O)nc1 (stereo not shown) [HANT-328] | 1830 | –
3 | N#Cc1cc2c(c(Cl)c1OCCCl)CCCC2Nc1ccc(OCCCCNc2ccc3c(c2)C(=O)N(C2CCC(=O)NC2=O)C3=O)nc1 (stereo not shown) [HANT-331, 4-chloro-3-(2-chloroethoxy)-8-((6-(4-(2-(2,6-dioxopiperidin-3-yl)-1,3-dioxoisoindolin-5-yl)amino)butoxy)pyridin-3-amino)-5,6,7,8-tetrahydronaphthalene-2-carbonitrile] | 822 | > 10000
4 | N#Cc1cc2c(c(Cl)c1OCCCl)CCCC2c1cnc(N2CCC(OCCOc3ccc4c(c3)C(=O)N(C3CCC(=O)NC3=O)C4=O)CC2)nc1 (stereo not shown) [HANT-342] | 27 | 40
5 | N#Cc1cc2c(c(Cl)c1OCCCl)CCCC2Nc1ccc(OCOCNc2cccc3c2C(=O)N(C2CCC(=O)NC2=O)C3=O)nc1 (stereo not shown) [HANT-362] | 913 | –
6 | N#Cc1cc2c(c(Cl)c1OCCCl)CCCC2c1cnc(N2CCC(OCCCOc3ccc4c(c3)C(=O)N(C3CCC(=O)NC3=O)C4=O)CC2)nc1 (stereo not shown) [HANT-371, 4-chloro-3-(2-chloroethoxy)-8-(2-(4-(3-((2-(2,6-dioxopiperidin-3-yl)-1,3-dioxoisoindol-5-yl)oxy)propoxy)piperidin-1-yl)pyrimidin-5-yl)-5,6,7,8-tetrahydronaphthalene-2-carbonitrile] | 292 | 284
7 | N#Cc1cc2c(c(Cl)c1OCCCl)CCCC2c1cnc(N2CCC(OC3CN(c4ccc5c(c4)C(=O)N(C4CCC(=O)NC4=O)C5=O)C3)CC2)nc1 (stereo not shown) [HANT-390] | 476 | –
8 | N#Cc1cc2c(c(Cl)c1OCCCl)CCCC2c1ccc(N2CCC(OCCCOc3ccc4c(c3)C(=O)N(C3CCC(=O)NC3=O)C4=O)CC2)nc1 (stereo not shown) [HANT-512] | 318 | –
9 | N#Cc1cc2c(c(Cl)c1OCCCl)CCCC2c1ccc(N2CC(OCCOc3ccc4c(c3)C(=O)N(C3CCC(=O)NC3=O)C4=O)C2)nc1 (stereo not shown) [HANT-513] | 7.6 | –
10 | N#Cc1cc2c(c(Cl)c1OCCCl)CCCC2c1ccc(N2CCC(OCCOc3ccc4c(c3)C(=O)N(C3CCC(=O)NC3=O)C4=O)CC2)nc1 (stereo not shown) [HANT-514] | 73 | –
11 | N#Cc1cc2c(c(Cl)c1OCCCl)CCCC2c1cnc2c(cnn2CCOCCOc2ccc3c(c2)C(=O)N(C2CCC(=O)NC2=O)C3=O)c1 (stereo not shown) [HANT-515] | 754 | –
12 | N#Cc1cc(C2CCCc3c2cc(C#N)c(OCCCl)c3Cl)cnc1N1CC(OCCOc2ccc3c(c2)C(=O)N(C2CCC(=O)NC2=O)C3=O)C1 (stereo not shown) [HANT-516] | 32 | –
13 | N#Cc1cc2c(c(Cl)c1OCCCl)CCCC2c1ccc(OC2CCC(Oc3ccc4c(c3)C(=O)N(C3CCC(=O)NC3=O)C4=O)CC2)nc1 (stereo not shown) [HANT-517] | 575 | –
14 | N#Cc1cc2c(c(Cl)c1OCCCl)CCCC2c1ccc(OC2CCC(OCCOc3ccc4c(c3)C(=O)N(C3CCC(=O)NC3=O)C4=O)CC2)nc1 (stereo not shown) [HANT-518] | 209 | –
15 | N#Cc1cc2c(c(Cl)c1OCCCl)CCCC2c1cnc(N2CC(OCCOc3ccc4c(c3)C(=O)N(C3CCC(=O)NC3=O)C4=O)C2)nc1 (stereo not shown) [HANT-519] | 23 | –

Second part, the compound after the results:

Row | IC50 [1] [nM] | DC50 [2] [nM] | SMILES
16 | 377 | – | CCOc1c(C#N)cc2c(c1Cl)CCCC2Nc1ccc(OCCCNc2ccc3c(c2)C(=O)N(C2CCC(=O)NC2=O)C3=O)nc1 (stereo not shown) [HANT-312, 4-chloro-8-(6-(3-((2-(2,6-dioxopiperidin-3-yl)-1,3-dioxoisoindolin-5-yl)amino)propoxy)pyridin-3-ylamino)-3-ethoxy-5,6,7,8-tetrahydronaphthalene-2-carbonitrile]
17 | 490 | – | N#Cc1cc2c(c(Cl)c1OCCCl)CCCC2c1cnc(NCCCNc2ccc3c(c2)C(=O)N(C2CCC(=O)NC2=O)C3=O)nc1 (stereo not shown) [HANT-314]
18 | 30 | 8.7 | N#Cc1cc2c(c(Cl)c1OCCCl)CCCC2c1cnc(NCCOCCOc2ccc3c(c2)C(=O)N(C2CCC(=O)NC2=O)C3=O)nc1 (stereo not shown) [HANT-315, 4-chloro-3-(2-chloroethoxy)-8-(2-(2-(2-(2,6-dioxopiperidin-3-yl)-1,3-dioxoisoindolin-5-yl)oxy)ethoxy-amino)pyrimidin-5-yl-5,6,7,8-tetrahydronaphthalene-2-carbonitrile]
19 | 2 | 4.3 | N#Cc1cc2c(c(Cl)c1OCCCl)CCC[C@H]2c1cnc(NCCOCCOc2ccc3c(c2)C(=O)N(C2CCC(=O)NC2=O)C3=O)nc1 (stereo partly shown) [HANT-315-P1]
20 | 123 | – | N#Cc1cc2c(c(Cl)c1OCCCl)CCCC2Nc1ccc(OCNc2ccc3c(c2)C(=O)N(C2CCC(=O)NC2=O)C3=O)nc1 (stereo not shown) [HANT-329]
21 | 657 | > 10000 | N#Cc1cc2c(c(Cl)c1OCCCl)CCCC2c1ccc(OCCCCOc2ccc3c(c2)C(=O)N(C2CCC(=O)NC2=O)C3=O)nc1 (stereo not shown) [HANT-338]
22 | 569 | – | N#Cc1cc2c(c(Cl)c1OCCCl)CCCC2c1ccc(OCCCNc2ccc3c(c2)C(=O)N(C2CCC(=O)NC2=O)C3=O)nc1 (stereo not shown) [HANT-339]
23 | 29 | 24 | N#Cc1cc2c(c(Cl)c1OCCCl)CCCC2c1ccc(NCCOCCOc2ccc3c(c2)C(=O)N(C2CCC(=O)NC2=O)C3=O)nc1 (stereo not shown) [HANT-346]
24 | 21 | 13 | CCOc1c(C#N)cc2c(c1Cl)CCCC2c1cnc(NCCOCCOc2ccc3c(c2)C(=O)N(C2CCC(=O)NC2=O)C3=O)nc1 (stereo not shown) [HANT-354]
25 | 428 | – | N#Cc1cc2c(c(Cl)c1OCCCl)CCCC2c1cnc(N2CCC(OCCNc3ccc4c(c3)C(=O)N(C3CCC(=O)NC3=O)C4=O)C2)nc1 (stereo not shown) [HANT-393]
26 | 744 | – | CCOc1c(C#N)cc2c(c1Cl)CCCC2c1cnc(NCCOC2CN(c3ccc4c(c3)C(=O)N(C3CCC(=O)NC3=O)C4=O)C2)nc1 (stereo not shown) [HANT-431, 4-chloro-8-(2-((2-(2-(1-(2-(2,6-dioxopiperidin-3-yl)-1,3-dioxoisoindol-5-yl)azetidin-3-yl)oxy)ethyl)amino)pyrimidin-5-yl)-3-ethoxy-5,6,7,8-tetrahydronaphthalene-2-carbonitrile]
